Results published in ChEMBL document CHEMBL3600349 (Bioorg Med Chem Lett, 2015).
Values belong to the molecule of their own block, whether it stands above or below them.

Legend:
[1] = target: T1, Melanin-concentrating hormone receptor 1 (Homo sapiens, UniProt Q99705); assay: Displacement of [125I]-MCH from human MCH-R1 expressed in CHO/Galpha16 cells after 60 mins by scintillation counting; type: cell-based
[2] = Lipophilicity, log P of the compound by HPLC analysis; type: physicochemical
[3] = Half life in rat liver microsomes; type: ADME
[4] = Intrinsic clearance in human hepatocytes assessed per 10^6 cells; type: ADME, cell-based, Hepatocyte; conditions: read-out: CLH
[5] = target: hERG (KCNH2) (Homo sapiens, UniProt Q12809); assay: Inhibition of human ERG at 10 uM by patch clamp assay
[6] = system: U-937; assay: Toxicity in human U937 cells assessed as first effect concentration for phospholipidosis by nile red uptake assay; type: cell-based
[7] = target: T1, Melanin-concentrating hormone receptor 1; assay: Binding affinity to human MCH-R1 expressed in CHO/Galpha16 cells; type: cell-based
[8] = target: Histamine H3 receptor (Homo sapiens) (UniProt Q9Y5N1); assay: Binding affinity to histamine H3 receptor (unknown origin) at 10 uM by radioligand binding assay
[9] = target: Melanin-concentrating hormone receptor 1 (Rattus norvegicus, UniProt P97639); assay: Binding affinity to rat MCH-R1
[10] = Binding affinity to dog MCH-R1; parameters: species or system Canis lupus familiaris
[11] = Metabolic stability in human hepatocytes relative to hepatic blood flow; type: ADME, cell-based, Hepatocyte; conditions: read-out: Stability
[12] = Metabolic stability in rat hepatocytes relative to hepatic blood flow; type: ADME, cell-based, Hepatocyte; conditions: read-out: Stability
[13] = Metabolic stability in cynomolgus monkey hepatocytes relative to hepatic blood flow; type: ADME, cell-based, Macaca fascicularis, Hepatocyte; conditions: read-out: Stability
[14] = Plasma protein binding in human; type: ADME, cell-free; conditions: read-out: PPB (converted)
[15] = Plasma protein binding in rat; type: ADME, cell-free; conditions: read-out: PPB (converted)
[16] = Plasma protein binding in dog; type: ADME, cell-free, Canis lupus familiaris; conditions: read-out: PPB (converted)
[17] = Plasma protein binding in cynomolgus monkey; type: ADME, cell-free, Macaca fascicularis; conditions: read-out: PPB (converted)
[18] = Apparent permeability from apical to basolateral side in human Caco2 cells at 10 uM; type: ADME, cell-based; conditions: Caco-2
[19] = Efflux ratio in human Caco2 cells at 10 uM; type: ADME, cell-based; conditions: Caco-2
[20] = species on record: Rattus norvegicus; assay: Clearance in rat relative to hepatic blood flow; type: ADME, organism-based, Liver; conditions: in vivo
[21] = species on record: Canis familiaris; assay: Clearance in dog relative to hepatic blood flow; type: ADME, organism-based, Canis lupus familiaris, Liver; conditions: in vivo
[22] = system: Cynomolgus monkey; assay: Clearance in cynomolgus monkey relative to hepatic blood flow; type: ADME, organism-based, Macaca fascicularis, Liver; conditions: in vivo
[23] = Volume of distribution at steady state in rat; type: ADME, organism-based; conditions: in vivo, read-out: Vdss
[24] = Volume of distribution at steady state in dog; type: ADME, organism-based, Canis lupus familiaris; conditions: in vivo, read-out: Vdss
[25] = Volume of distribution at steady state in cynomolgus monkey; type: ADME, organism-based, Macaca fascicularis; conditions: in vivo, read-out: Vdss
[26] = Mean residence time in iv dosed rat; type: ADME, organism-based; conditions: in vivo
[27] = Mean residence time in iv dosed dog; type: ADME, organism-based, Canis lupus familiaris; conditions: in vivo
[28] = Mean residence time in iv dosed cynomolgus monkey; type: ADME, organism-based, Macaca fascicularis; conditions: in vivo
[29] = Total mean residence time in iv dosed rat; type: ADME, organism-based; conditions: in vivo
[30] = Total mean residence time in iv dosed dog; type: ADME, organism-based, Canis lupus familiaris; conditions: in vivo
[31] = Total mean residence time in iv dosed cynomolgus monkey; type: ADME, organism-based, Macaca fascicularis; conditions: in vivo
[32] = Oral bioavailability in rat; type: ADME, organism-based; conditions: in vivo
[33] = Oral bioavailability in dog; type: ADME, organism-based, Canis lupus familiaris; conditions: in vivo
[34] = Oral bioavailability in cynomolgus monkey; type: ADME, organism-based, Macaca fascicularis; conditions: in vivo
[35] = target: Cytochrome P450 3A4 (Homo sapiens, UniProt P08684); assay: Inhibition of CYP3A4 (unknown origin); type: ADME
[36] = target: T2, Cytochrome P450 2C8 (Homo sapiens, UniProt P10632); assay: Inhibition of CYP2C8 (unknown origin); type: ADME
T2 sequence (P10632 whole entry): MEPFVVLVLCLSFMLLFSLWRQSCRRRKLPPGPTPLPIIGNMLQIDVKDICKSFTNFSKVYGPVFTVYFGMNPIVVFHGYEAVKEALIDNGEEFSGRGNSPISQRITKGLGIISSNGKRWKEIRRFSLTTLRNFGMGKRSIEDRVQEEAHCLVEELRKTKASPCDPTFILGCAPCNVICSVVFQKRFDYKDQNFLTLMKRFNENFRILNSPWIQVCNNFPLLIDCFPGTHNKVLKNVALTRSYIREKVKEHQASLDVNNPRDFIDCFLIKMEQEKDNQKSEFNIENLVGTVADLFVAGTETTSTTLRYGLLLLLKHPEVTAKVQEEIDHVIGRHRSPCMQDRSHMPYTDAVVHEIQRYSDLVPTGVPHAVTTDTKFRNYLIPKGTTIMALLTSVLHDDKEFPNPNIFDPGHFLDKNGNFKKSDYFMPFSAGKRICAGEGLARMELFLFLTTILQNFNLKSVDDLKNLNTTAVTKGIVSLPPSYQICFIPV

[37] = target: Cytochrome P450 2C9 (Homo sapiens, UniProt P11712); assay: Inhibition of CYP2C9 (unknown origin); type: ADME
[38] = target: Cytochrome P450 2C19 (Homo sapiens, UniProt P33261); assay: Inhibition of CYP2C19 (unknown origin); type: ADME
[39] = target: Cytochrome P450 2D6 (Homo sapiens, UniProt P10635); assay: Inhibition of CYP2D6 (unknown origin); type: ADME
[40] = target: CYP3A4 (Homo sapiens, UniProt P08684); assay: Time dependent inhibition of CYP3A4 (unknown origin) at 25 uM after 30 mins; type: ADME
[41] = target: T3, Nuclear receptor subfamily 1 group I member 2 (Homo sapiens, UniProt O75469); assay: Activation of PXR (unknown origin) at 10 uM relative to rifampicin; type: ADME
T3 sequence (O75469 whole entry): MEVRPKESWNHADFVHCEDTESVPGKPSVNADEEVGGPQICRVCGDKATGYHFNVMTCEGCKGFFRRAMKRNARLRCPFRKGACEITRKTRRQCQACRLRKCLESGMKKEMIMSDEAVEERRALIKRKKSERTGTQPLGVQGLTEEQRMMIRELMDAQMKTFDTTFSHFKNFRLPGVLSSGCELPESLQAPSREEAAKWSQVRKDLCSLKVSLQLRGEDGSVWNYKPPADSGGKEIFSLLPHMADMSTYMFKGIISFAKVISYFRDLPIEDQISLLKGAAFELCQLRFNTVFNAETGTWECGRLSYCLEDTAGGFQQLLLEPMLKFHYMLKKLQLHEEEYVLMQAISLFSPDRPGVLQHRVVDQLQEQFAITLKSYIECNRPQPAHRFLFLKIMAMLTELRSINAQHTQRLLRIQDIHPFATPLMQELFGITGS

[42] = system: Salmonella typhimurium; assay: Genotoxicity in Salmonella typhimurium by Ames test; type: toxicity, organism-based; conditions: salmonella enterica subsp. enterica serovar typhimurium
[43] = system: U-937; assay: Cytotoxicity against human U937 cells; type: cell-based
[44] = system: U-937; assay: Toxicity in human U937 cells assessed as phospholipidosis at 100 uM by nile red uptake assay; type: cell-based; conditions: u-937, 100 µM
[45] = target: Voltage-gated inwardly rectifying potassium channel KCNH2 (Homo sapiens, UniProt Q12809); assay: Inhibition of human ERG by patch clamp assay
[46] = Distribution coefficient, log D of the compound; type: physicochemical; conditions: octanol/water
[47] = Dissociation constant, pKa of the compound; type: physicochemical
[48] = Aqueous solubility of the compound at pH 2.2; type: physicochemical
[49] = Aqueous solubility of the compound at pH 4.5; type: physicochemical
[50] = Aqueous solubility of the compound at pH 6.8; type: physicochemical
[51] = Aqueous solubility of the compound at pH 7.4; type: physicochemical
[52] = system: Rattus norvegicus; assay: Antiobesity activity in diet-induced obese Wistar rat model assessed as reduction of body weight at 3 mg/kg, po bid after 4 weeks; type: functional; parameters: scale not given: the % may be the effect or the level left
[53] = system: Rattus norvegicus; assay: Antiobesity activity in diet-induced obese Wistar rat model assessed as reduction of body weight at 6 mg/kg, po bid after 4 weeks; type: functional; parameters: scale not given: the % may be the effect or the level left
[54] = system: Rattus norvegicus; assay: Antiobesity activity in diet-induced obese Wistar rat model assessed as reduction of body weight at 10 mg/kg, po bid after 4 weeks; type: functional; parameters: scale not given: the % may be the effect or the level left
[55] = system: Rattus norvegicus; assay: Toxicity in diet-induced obese Wistar rat model at 6 to 10 mg/kg, po bid after 4 weeks; type: organism-based; conditions: in vivo, 672 h
[56] = system: Cynomolgus monkey; assay: Cardiotoxicity in conscious cynomolgus monkey assessed as systolic and diastolic blood pressure at 3 to 30 mg/kg, po; type: toxicity, organism-based, Macaca fascicularis; conditions: in vivo
[57] = system: Cynomolgus monkey; assay: Cardiotoxicity in conscious cynomolgus monkey assessed as left ventricular pressure at 3 to 30 mg/kg, po; type: toxicity, organism-based, Macaca fascicularis, Heart left ventricle; conditions: in vivo
[58] = system: Cynomolgus monkey; assay: Cardiotoxicity in conscious cynomolgus monkey assessed as myocardial contraction at 3 to 30 mg/kg, po; type: toxicity, organism-based, Macaca fascicularis, Myocardium; conditions: in vivo
[59] = system: Cynomolgus monkey; assay: Cardiotoxicity in conscious cynomolgus monkey assessed as decrease in heart rate at 30 mg/kg, po; type: toxicity, organism-based, Macaca fascicularis; conditions: in vivo
[60] = species on record: Homo sapiens; assay: Selectivity ratio, ratio of muscarinic M1 receptor (unknown origin) to human MCH-R1
[61] = species on record: Homo sapiens; assay: Selectivity ratio, ratio of 5HT2A receptor (unknown origin) to human MCH-R1

Chain of hERG (KCNH2) (Q12809 whole entry): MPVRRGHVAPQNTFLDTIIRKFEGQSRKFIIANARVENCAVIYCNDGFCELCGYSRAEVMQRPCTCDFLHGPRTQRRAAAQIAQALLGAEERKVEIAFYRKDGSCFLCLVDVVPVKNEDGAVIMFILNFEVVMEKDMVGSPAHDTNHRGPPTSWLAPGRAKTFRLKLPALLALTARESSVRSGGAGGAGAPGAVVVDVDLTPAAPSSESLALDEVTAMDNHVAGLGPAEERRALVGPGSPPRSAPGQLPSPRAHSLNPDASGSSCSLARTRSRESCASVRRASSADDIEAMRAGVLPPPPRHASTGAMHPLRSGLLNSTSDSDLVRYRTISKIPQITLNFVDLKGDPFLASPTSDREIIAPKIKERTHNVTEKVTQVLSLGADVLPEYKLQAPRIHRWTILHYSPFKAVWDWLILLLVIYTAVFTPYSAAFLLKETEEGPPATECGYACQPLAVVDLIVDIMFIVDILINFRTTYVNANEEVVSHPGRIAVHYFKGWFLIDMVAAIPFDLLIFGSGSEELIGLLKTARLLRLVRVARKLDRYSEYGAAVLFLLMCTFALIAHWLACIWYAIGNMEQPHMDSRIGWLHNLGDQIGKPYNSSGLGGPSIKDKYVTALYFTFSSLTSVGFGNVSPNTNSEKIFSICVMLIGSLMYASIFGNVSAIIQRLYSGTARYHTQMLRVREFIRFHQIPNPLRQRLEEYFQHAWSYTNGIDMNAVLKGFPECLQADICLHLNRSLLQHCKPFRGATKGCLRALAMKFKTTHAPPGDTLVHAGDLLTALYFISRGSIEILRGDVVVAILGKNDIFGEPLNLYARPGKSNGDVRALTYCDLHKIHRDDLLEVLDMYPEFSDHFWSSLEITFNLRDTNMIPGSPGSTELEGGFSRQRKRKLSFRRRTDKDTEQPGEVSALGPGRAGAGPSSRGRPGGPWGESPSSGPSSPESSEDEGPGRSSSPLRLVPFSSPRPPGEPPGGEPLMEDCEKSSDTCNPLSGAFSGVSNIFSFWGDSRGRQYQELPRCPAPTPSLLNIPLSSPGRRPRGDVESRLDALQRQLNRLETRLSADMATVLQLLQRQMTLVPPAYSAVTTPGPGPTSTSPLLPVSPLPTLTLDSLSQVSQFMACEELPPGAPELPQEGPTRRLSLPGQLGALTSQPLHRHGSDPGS
T1 sequence (Q99705 whole entry): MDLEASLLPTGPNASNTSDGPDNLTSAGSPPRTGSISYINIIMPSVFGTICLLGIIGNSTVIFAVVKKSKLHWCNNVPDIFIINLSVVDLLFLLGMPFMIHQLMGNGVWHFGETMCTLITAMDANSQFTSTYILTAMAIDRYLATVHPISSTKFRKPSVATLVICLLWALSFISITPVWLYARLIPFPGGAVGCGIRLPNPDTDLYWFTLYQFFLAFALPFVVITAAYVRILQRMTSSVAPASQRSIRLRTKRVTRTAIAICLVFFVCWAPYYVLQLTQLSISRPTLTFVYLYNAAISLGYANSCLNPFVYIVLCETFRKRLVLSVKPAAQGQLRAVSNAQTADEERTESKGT
Chain of Cytochrome P450 2C19 (P33261 whole entry): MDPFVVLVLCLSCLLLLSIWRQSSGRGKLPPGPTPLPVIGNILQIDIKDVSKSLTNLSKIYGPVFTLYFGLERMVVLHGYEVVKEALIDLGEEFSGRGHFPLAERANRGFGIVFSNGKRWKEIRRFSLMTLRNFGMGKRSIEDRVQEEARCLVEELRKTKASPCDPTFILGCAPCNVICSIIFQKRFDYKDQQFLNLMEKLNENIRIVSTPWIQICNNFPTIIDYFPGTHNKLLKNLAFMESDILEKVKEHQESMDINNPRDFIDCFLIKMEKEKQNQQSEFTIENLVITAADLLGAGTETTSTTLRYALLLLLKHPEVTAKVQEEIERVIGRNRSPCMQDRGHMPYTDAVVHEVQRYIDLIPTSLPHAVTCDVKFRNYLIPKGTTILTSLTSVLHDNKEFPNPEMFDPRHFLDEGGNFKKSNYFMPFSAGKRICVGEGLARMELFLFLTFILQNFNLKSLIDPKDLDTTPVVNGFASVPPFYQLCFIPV
Chain of Voltage-gated inwardly rectifying potassium channel KCNH2 (Q12809 whole entry): as the sequence (Q12809 whole entry) above
Chain of Melanin-concentrating hormone receptor 1 (Rattus norvegicus, UniProt P97639) (P97639 whole entry): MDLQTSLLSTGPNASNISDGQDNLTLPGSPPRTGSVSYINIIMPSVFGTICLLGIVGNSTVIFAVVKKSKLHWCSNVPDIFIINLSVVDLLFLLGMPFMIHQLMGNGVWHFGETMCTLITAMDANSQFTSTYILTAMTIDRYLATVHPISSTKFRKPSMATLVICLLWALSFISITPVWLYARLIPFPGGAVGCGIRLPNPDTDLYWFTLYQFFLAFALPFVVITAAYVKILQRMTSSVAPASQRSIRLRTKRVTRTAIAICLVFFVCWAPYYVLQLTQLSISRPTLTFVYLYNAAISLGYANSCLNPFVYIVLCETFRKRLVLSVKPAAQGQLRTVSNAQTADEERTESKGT
Chain of Cytochrome P450 2C9 (P11712 whole entry): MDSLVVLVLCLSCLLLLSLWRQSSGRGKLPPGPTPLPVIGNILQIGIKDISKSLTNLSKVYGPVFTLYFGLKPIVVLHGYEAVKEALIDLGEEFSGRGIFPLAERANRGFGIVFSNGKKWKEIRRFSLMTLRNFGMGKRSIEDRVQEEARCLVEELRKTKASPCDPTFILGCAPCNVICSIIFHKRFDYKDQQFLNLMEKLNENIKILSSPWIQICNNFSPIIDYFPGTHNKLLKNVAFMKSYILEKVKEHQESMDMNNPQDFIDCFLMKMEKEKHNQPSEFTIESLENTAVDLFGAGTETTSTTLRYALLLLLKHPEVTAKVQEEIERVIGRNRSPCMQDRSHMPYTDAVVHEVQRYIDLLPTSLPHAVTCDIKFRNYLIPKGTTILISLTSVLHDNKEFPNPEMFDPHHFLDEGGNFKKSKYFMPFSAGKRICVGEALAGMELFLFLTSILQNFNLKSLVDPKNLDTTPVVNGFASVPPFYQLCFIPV
Chain of Histamine H3 receptor (Homo sapiens) (Q9Y5N1 whole entry): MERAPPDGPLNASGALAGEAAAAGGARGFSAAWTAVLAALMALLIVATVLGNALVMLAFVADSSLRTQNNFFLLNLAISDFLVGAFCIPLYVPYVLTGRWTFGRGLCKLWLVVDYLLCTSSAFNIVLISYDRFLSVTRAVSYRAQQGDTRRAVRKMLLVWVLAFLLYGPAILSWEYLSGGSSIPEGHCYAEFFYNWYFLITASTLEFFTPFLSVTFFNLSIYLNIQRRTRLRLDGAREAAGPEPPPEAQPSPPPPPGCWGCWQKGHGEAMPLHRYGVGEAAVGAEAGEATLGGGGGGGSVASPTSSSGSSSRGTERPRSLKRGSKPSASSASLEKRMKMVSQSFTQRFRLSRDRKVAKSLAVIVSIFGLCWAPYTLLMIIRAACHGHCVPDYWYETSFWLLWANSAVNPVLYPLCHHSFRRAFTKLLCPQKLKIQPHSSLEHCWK
Chain of Cytochrome P450 2D6 (P10635 whole entry): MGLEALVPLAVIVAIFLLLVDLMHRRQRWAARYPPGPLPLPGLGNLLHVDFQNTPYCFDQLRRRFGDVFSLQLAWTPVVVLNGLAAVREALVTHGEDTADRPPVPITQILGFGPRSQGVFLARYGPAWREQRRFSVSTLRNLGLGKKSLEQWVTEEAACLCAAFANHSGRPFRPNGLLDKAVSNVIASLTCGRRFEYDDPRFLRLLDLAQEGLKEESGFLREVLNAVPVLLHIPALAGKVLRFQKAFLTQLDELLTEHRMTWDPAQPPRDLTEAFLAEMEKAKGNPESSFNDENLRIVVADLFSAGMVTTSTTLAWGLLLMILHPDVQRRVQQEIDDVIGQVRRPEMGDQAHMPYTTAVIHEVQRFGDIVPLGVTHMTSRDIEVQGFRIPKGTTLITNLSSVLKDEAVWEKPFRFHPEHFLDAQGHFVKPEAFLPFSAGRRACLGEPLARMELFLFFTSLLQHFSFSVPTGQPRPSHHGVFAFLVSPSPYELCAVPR

IC50 [1]: 22 nM
logP [2]: 2.3
half-life [3]: > 45 min
hepatocyte CLint [4]: 3.3 µL/min/1e6 cells
Ki [7]: 14 nM
Activity [8]: 78%
IC50 [9]: 18 nM
IC50 [10]: 23 nM
hepatic extraction ratio [11]: 0.26
hepatic extraction ratio [12]: 0.78
hepatic extraction ratio [13]: 0.43
fraction unbound [14]: 0.07
fraction unbound [15]: 0.1
fraction unbound [16]: 0.2
fraction unbound [17]: 0.1
Papp A→B at 10 µM [18]: 52 ×10⁻⁶ cm/s
efflux ratio at 10 µM [19]: 1
CL [20]: 164%
CL [21]: 229%
CL [22]: 40%
Vd [23]: 3.3 L/kg
Vd [24]: 2.9 L/kg
Vd [25]: 1.3 L/kg
MRT [26]: 30 min
MRT [27]: 42 min
MRT [28]: 72 min
MRT [29]: 204 min
MRT [30]: 174 min
MRT [31]: 132 min
bioavailability [32]: 53%
bioavailability [33]: 1.4%
bioavailability [34]: 44%
IC50 [35]: 18000 nM
IC50 [36]: > 50000 nM
IC50 [37]: > 50000 nM
IC50 [38]: > 50000 nM
IC50 [39]: > 50000 nM
inhibition at 0.5 h, 25 µM [40]: 85%
Activity [41]: 17%
logD [46]: 1.4
pKa [47]: 2.8
solubility [48]: > 1000 µg/mL
solubility [49]: > 1000 µg/mL
solubility [50]: > 1000 µg/mL
solubility [51]: > 1000 µg/mL
Compound: COc1ccc(COc2cnn(CC(=O)c3ccc(CN(C)C)cc3C)c(=O)c2)nc1
inhibition at 10 µM [5]: 17%
Activity [6]: 200 µM
Activity [42]: Non-toxic
IC50 [43]: 506000 nM
Activity [44]: Non-toxic
IC50 [45]: 16000 nM
Activity [52]: 7.7%
Activity [53]: 10.1%
Activity [54]: 10.2%
Activity [55]: Non-toxic
Activity [56]: Non-toxic
Activity [57]: Non-toxic
Activity [58]: Non-toxic
Activity [59]: Non-toxic

IC50 [1]: 10 nM
logP [2]: 3.6
half-life [3]: 6 min
hepatocyte CLint [4]: 17 µL/min/1e6 cells
Compound: CN(C)Cc1ccc(C(=O)Cn2ncc(OCc3ccccc3)cc2=O)cc1

IC50 [1]: 13 nM
logP [2]: 3
half-life [3]: 23 min
hepatocyte CLint [4]: 24 µL/min/1e6 cells
Ratio [60]: > 200
Ratio [61]: > 200
Compound: CN(C)Cc1ccc(C(=O)Cn2ccc(OCc3ccccc3)cc2=O)cc1
inhibition at 10 µM [5]: 63%
Activity [6]: 100 µM

logP [2]: 3.1
half-life [3]: > 45 min
Compound: Cc1cc(CN(C)C)ccc1C(=O)Cn1ncc(OCc2ccc(Cl)cn2)cc1=O
Activity [6]: 50 µM

IC50 [1]: 22 nM
logP [2]: 3.1
half-life [3]: 7 min
hepatocyte CLint [4]: 58 µL/min/1e6 cells
Compound: CN(C)Cc1ccc(C(=O)Cn2ncc(OCc3ccc(Br)cn3)cc2=O)cc1

logP [2]: 3.3
half-life [3]: 24 min
hepatocyte CLint [4]: 4 µL/min/1e6 cells
Ratio [60]: > 200
Ratio [61]: > 200
Compound: Cc1cc(CN(C)C)ccc1C(=O)Cn1ccc(OCc2ccccc2)cc1=O
inhibition at 10 µM [5]: 67%
Activity [6]: 50 µM

IC50 [1]: 41 nM
logP [2]: 2.3
half-life [3]: > 45 min
hepatocyte CLint [4]: 69 µL/min/1e6 cells
Compound: CN(C)Cc1ccc(C(=O)Cn2ccc(OCc3ccc(Cl)cn3)cc2=O)cc1
